This is an account of results in patent US5072032A, “Preparation and use of thiophosphonates and thio-analogues of phosphonoformic acid” (priority 1989, dated 1991).

The target in series [1] is T1, HIV-1 reverse transcriptase (Human immunodeficiency virus type 1 group M subtype B, UniProt P04585).
T1 construct: made in house
Description: HIV-1 reverse transcriptase assay (viral polymerase inhibition). It is filed as biochemical.

In another series the target is T2, EBV DNA polymerase (Epstein-Barr virus, UniProt P03198).
T2 construct: made in house
In words: Viral polymerase inhibition, EBV. It is filed as biochemical. The text has this: (§1) Viral DNA polymerases (HSV-1, HSV-2, EBV) were purified by previously published methods (Derce, D. K. F. Bastow, and Y. C. Cheng (1982) J. Boil. Chem. 257:10251-10260; Ostrander, M., and Y. C. Cheng (1980) Biochim. Biophys. Acta 609:232-245; Tan, R. S., A. Datta. and Y. C. Cheng (1982) J. Virol. 44:893-899). These procedures generally included sequential chromatography on DEAE-cellulose. HIV reverse transcriptase was purified by antibody affinity column chromatography as descrbed (Starnes. M. C. and Y. C. Cheng (1989) J. Biol. Chem. 264:7073-7077). The purified enzymes were dialyzed against and stored in 50 mM Tris-HCl (pH 7.5) containing 1 mM each of DTT, EDTA and PMSF plus 30% glycerol. Mammalian DNA polymerases alpha, beta, gamma, and delta were partially purified from K562 celles (chronic myelogenous leukemia tissue culture line). Briefly, washed cell pellets were extracted and passed throgh DEAE-cellulose in the presence of 300 mM KPO4 (pH 7.5) as previously described (Starnes, M. C., and Y. C. Cheng (1987) J. Biol. Chem 282:988-981) to remove DNA. The column flow-through fractions were dialyzed against buffer which contained 50 mM Tris-HCl (pH 7.5), and fractionated on a single-stranded DNA-cellulose column with a 0-1M KCl gradient.
Standard assays were run at 37° C. and contained: 50 mM Tris, pH b 8.0, 0.5 mM DTT, 8 mM MgCl2, 100 μg/mL BSA, 150 μg/mL gapped calf thymus DNA, 100 μM each dATP, dCTP, dGTP, 10 .parallel.M [^3 H]-dTTP, and 1-5 .parallel.L enzyme in a final volume of 50 .parallel.L. Modified assays for pH dependence inhibition studies with PFA (1) and α--oxo phosphonates (4 and 5) contained 50 mM Hepes, pH 8.2-6.5, 8 mM MgCl2, 100 mM KCl, 100 μg/ml BSA, 0.5 A260 units/ml of poly(rA).(dT)10, 100 μM [^3 H]dTTP, and 1.5 .parallel.L enzyme in a final volume of 50 μL. Samples were processed as described above.

The next series has as its target HV-6 polymerase (Human herpesvirus 6A, UniProt P28857). In words: Viral polymerase inhibition, HV-6. It is filed as biochemical, Herpes Virus 6.
The target in a further series is T3, human DNA polymerase α (Homo sapiens, UniProt P09884).
T3 construct: Mammalian DNA polymerases alpha, beta, gamma, and delta were partially purified from K562 celles; endogenous in cells; host or cells: K562 (chronic myelogenous leukemia tissue culture line)
Description: Human DNA polymerase inhibition, alpha. It is filed as biochemical. The conditions noted are these: for remaining activity at 100 µM: read-out: % Control at 100 μM ± S.D.
From the text: as §1
In accordance with the teaching of the present invention similar enzyme inhibition assays were also conducted with respect to mammalian enzymes, more particularly, human DNA polymerase.

Series [2] in a line: Toxicity: cell density of uninfected H9 cultures. It is filed as cell-based. To be noted: human, h9 cells, 3 days, read-out: Cell Survival (%). On the procedure:
In addition to testing the activity of TPFA against HIV enzyme, the activity against the virus itself was also determined in accordance with the following protocol. The experimental protocol involved incubatino of H9 lymphocytes (3.5×10^6 cells/ml) in the presence or absence of HIV-1 (HTLV-IIIB) for one hour at 37° C. Cells were washed thoroughly to remove unabsorbed virions and re-suspended at 4×10^5 cells/ml in culture medium. Aliquots (1 ml) were placed in wells of 24 well culture plates containing any equal volume of test compound (diluted in culture medium). After incubation for three days at 37° C., cell density of uninfected cultures was determined to assess toxicity of the test compound. A p24 antigen capture was used to determine the level of HIV infection in HIV treated cultures. The ability of test compounds to inhibit HIV replication was measured at different concentrations relative to infected, untreated cultures. Test compounds were considered to be active if p24 levels were <70% of infected, untreated cultures. Cytotoxicity in uninfect4ed H9 cells was not detected.

Read-outs that look alike come from different tables or passages of the source.

T2 sequence (P03198 whole entry): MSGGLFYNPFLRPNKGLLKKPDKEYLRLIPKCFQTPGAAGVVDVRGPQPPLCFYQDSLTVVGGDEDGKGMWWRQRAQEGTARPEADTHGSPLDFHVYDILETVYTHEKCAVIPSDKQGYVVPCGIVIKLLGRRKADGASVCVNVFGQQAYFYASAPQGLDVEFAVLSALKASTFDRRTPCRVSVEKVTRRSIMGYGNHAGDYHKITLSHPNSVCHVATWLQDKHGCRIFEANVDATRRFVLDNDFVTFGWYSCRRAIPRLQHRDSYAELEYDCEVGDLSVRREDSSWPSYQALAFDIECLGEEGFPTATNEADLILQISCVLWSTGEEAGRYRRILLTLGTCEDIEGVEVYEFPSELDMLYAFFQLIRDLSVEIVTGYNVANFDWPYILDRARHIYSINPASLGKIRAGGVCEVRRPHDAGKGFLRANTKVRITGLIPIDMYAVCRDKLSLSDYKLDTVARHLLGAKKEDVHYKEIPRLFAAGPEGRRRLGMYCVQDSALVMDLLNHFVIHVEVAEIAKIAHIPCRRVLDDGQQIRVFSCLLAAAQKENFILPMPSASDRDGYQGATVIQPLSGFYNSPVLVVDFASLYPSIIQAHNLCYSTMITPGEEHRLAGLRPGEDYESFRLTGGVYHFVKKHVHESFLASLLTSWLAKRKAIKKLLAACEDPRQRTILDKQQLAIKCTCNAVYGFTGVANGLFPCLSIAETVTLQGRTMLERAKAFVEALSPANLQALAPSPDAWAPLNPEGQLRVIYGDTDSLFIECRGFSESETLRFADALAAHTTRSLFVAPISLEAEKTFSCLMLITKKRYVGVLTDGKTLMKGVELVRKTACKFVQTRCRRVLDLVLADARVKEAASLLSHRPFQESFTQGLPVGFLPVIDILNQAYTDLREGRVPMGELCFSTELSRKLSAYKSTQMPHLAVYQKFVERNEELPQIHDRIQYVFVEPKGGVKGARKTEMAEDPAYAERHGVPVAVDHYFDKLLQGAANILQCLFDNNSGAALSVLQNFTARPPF
T3 sequence (P09884 whole entry): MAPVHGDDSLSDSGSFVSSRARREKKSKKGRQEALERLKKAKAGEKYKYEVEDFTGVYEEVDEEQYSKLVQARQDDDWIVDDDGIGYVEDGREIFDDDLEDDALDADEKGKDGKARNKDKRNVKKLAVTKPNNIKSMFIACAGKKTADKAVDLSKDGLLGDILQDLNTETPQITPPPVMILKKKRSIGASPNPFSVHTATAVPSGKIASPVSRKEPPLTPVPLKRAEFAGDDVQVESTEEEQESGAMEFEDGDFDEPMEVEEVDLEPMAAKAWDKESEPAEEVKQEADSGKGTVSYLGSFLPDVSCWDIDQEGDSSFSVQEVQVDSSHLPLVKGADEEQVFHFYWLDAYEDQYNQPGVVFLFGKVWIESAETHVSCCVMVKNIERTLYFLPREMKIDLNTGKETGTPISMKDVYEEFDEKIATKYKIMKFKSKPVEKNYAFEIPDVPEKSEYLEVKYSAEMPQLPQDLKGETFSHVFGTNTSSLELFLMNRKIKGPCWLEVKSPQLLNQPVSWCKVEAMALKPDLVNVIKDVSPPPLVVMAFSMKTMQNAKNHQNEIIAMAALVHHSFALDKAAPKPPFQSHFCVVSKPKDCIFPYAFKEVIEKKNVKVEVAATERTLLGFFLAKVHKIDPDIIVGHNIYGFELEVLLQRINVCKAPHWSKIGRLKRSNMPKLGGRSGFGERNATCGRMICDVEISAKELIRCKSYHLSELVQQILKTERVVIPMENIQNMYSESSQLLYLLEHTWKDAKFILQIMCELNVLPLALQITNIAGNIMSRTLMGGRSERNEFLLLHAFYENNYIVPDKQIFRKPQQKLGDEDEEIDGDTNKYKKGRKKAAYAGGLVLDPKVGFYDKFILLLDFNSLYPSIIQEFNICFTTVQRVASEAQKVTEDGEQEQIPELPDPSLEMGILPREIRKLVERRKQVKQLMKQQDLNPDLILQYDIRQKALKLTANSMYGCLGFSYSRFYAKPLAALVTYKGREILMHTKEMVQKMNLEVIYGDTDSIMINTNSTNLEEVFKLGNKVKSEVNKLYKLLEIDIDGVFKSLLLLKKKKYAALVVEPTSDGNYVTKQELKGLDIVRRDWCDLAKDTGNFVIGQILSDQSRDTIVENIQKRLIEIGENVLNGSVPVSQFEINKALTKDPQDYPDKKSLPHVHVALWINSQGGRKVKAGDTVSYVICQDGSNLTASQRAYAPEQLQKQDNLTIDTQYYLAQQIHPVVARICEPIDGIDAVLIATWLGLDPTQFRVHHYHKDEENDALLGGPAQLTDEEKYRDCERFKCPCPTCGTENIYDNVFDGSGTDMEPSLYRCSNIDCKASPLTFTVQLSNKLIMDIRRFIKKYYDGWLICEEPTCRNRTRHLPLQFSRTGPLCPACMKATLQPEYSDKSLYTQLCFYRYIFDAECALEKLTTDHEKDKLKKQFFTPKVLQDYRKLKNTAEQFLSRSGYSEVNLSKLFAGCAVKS
T3 sequence (Q14181 whole entry partner): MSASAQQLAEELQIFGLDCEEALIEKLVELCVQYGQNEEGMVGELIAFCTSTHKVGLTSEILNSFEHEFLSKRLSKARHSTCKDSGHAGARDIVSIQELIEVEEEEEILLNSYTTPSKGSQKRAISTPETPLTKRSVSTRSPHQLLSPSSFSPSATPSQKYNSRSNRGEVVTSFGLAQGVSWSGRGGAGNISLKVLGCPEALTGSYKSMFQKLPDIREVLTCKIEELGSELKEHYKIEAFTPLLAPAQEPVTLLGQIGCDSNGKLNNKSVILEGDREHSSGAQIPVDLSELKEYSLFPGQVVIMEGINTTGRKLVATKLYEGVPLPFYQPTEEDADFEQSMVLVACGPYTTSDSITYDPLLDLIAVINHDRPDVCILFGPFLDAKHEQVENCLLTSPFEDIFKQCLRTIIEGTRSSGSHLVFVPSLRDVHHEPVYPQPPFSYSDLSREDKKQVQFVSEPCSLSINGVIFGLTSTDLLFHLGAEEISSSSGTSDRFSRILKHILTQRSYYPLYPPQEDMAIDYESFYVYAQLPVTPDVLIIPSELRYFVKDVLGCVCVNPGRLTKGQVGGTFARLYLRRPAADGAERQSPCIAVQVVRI
T3 sequence (P49642 whole entry partner): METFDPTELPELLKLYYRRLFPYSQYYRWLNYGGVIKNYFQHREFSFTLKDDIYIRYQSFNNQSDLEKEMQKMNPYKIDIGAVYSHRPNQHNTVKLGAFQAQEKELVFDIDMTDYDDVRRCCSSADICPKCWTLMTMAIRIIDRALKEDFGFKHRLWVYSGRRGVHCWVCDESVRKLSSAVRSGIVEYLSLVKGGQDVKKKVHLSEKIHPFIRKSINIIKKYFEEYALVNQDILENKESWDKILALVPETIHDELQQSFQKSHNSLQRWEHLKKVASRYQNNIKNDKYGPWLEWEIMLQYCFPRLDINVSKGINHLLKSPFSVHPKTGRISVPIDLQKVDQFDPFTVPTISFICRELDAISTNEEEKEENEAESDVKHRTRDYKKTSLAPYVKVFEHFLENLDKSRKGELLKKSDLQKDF
T3 sequence (P49643 whole entry partner): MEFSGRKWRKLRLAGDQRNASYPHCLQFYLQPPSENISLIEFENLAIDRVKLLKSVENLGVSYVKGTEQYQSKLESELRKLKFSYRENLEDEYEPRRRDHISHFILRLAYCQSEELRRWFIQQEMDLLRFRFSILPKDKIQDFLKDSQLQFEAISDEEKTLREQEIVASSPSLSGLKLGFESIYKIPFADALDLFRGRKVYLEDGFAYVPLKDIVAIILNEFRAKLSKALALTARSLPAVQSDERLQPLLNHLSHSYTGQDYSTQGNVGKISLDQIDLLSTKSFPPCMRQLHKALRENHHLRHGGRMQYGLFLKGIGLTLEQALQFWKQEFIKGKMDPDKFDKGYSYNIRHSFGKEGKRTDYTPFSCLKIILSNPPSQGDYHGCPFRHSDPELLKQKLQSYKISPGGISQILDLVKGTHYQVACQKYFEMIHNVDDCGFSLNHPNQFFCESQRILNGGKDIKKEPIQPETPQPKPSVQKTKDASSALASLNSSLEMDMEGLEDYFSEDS
Sequence of HV-6 polymerase (P28857 whole entry): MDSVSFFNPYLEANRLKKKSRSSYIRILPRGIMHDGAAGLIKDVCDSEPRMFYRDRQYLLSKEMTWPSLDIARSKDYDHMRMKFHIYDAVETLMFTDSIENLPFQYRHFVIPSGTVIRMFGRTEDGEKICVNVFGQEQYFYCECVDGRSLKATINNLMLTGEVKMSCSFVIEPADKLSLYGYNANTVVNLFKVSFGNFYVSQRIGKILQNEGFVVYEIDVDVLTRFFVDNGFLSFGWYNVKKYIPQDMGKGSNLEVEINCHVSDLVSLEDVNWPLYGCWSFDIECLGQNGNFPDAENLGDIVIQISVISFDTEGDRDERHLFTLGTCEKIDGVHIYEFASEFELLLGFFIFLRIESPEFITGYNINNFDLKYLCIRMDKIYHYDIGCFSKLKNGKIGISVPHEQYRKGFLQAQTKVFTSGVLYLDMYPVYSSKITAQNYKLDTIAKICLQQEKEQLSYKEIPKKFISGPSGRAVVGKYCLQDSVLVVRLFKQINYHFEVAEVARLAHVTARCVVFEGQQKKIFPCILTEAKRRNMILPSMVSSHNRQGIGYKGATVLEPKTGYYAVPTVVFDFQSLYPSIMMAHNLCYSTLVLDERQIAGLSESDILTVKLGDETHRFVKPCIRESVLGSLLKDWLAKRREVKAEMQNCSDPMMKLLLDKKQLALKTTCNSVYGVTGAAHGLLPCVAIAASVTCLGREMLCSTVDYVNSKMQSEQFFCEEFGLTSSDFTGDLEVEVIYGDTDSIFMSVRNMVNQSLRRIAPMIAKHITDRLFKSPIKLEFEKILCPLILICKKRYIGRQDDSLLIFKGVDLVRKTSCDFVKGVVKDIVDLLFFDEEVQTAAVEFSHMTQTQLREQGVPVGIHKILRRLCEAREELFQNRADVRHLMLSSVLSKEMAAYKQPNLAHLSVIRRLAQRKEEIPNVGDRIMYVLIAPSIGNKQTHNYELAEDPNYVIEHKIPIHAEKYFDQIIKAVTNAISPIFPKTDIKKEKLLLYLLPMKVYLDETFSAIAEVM

As to `O=C(O)P(O)(O)=S` [TPFA, thiophosphonoformic acid], the IC50 was 1000 nM in series [1], 70000 nM on EBV DNA polymerase, 70000 nM on HV-6 polymerase and above 100000 nM on human DNA polymerase α. Besides, the “effectiveness of TPFA relative to PFA” value is given as “more than seventy times less effective” at EBV DNA polymerase (EBV enzyme, ratio of ID50 values of Table I) and “more than seventy times less effective” at HV-6 polymerase (Herpes Virus 6 enzyme, ratio of ID50 values of Table I). At human DNA polymerase α (HIV enzyme and human enzyme, Tables I and II), the “toxicity to the human enzyme relative to PFA (therapeutic index)” value is listed as “at a minimum, three times less toxic”. The “fold less active against the human enzyme than against the HIV enzyme (therapeutic index)” value on human DNA polymerase α (human DNA polymerase vs HIV enzyme of Table I) was “greater than 100 fold”. For the same molecule, the remaining activity at 100 µM on human DNA polymerase α amounted to 72 ± 3%. In addition, the viability at 72 h in series [2] (drug conc. 0.1 μg/mL) came to 113%; in series [2] (drug conc. 0.5 μg/mL) it was 113%; in series [2] (drug conc. 2 μg/mL) it was 110%; in series [2] (drug conc. 10 μg/mL), 104%; in series [2] (drug conc. 50 μg/mL), 93%; in series [2] (drug conc. 200 μg/mL) it was 84%.
For the molecule `O=C(O)P(=O)(O)O` [PFA, phosphonoformic acid], the IC50 in series [1] was determined as 700 nM; on EBV DNA polymerase (EBV, "activated" DNA, read-out: ID50 (the source's name)), 1000 nM; at HV-6 polymerase (HV-6, "activated" DNA, read-out: ID50 (the source's name)), 1000 nM; on human DNA polymerase α (Pol α, "activated" DNA, read-out: ID50 (the source's name)), 31000 nM. Further, at human DNA polymerase α (Pol α, 100 μM, "activated" DNA), the remaining activity at 100 µM is 16 ± 2%. Further, the viability at 72 h in series [2] (drug conc. 1.9 μg/mL) worked out at 98%; in series [2] (drug conc. 7.5 μg/mL), 96%; in series [2] (drug conc. 30 μg/mL) it was 92%; in series [2] (drug conc. 120 μg/mL), 102%.
